Measured values as given in patent US20090142347A1, “Tissue-Nonspecific Alkaline Phosphatase (TNAP): a Therapeutic Target for Arterial Calcification” (THE BURNHAM INSTITUTE FOR MEDICAL RESEARCH, priority 2004, published 2009).

Tests used:
hPLALP G429 = target: T1, hPLALP G429 (Homo sapiens, UniProt P05187, E451G); assay: Ki of uncompetitive inhibitors (pNPP substrate); format: biochemical; conditions: hPLALP mutant G429; read-out: Ki for various inhibitors
T1 construct: made in house; host or cells: COS-7 (given only for the TNAP-Flag constructs)
T1 sequence (P05187 23-506 E451G limits assumed): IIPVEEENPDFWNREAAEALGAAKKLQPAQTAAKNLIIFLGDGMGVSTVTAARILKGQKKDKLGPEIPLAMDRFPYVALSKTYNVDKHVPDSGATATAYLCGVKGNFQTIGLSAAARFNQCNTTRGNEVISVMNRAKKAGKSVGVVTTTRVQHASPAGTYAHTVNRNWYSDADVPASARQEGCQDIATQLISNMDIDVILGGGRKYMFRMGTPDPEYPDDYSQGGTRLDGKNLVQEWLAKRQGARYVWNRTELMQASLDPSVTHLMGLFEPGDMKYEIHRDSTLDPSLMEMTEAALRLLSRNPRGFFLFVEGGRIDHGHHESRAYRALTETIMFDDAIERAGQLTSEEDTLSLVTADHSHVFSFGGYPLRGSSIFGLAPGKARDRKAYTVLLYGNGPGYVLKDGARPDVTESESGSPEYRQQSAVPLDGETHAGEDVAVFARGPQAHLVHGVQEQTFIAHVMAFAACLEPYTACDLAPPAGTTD
Method: (§1) In brief, samples of the enzymes were added to microtiter plates coated with M2 anti-FLAG antibody, and saturating activities with the substrate pNPP were measured in 1 M DEA/HCl buffer, pH 9.8, containing 1 mM MgCl2 and 20 .micro.M ZnCl2.

hPLALP S119 = target: T2, hPLALP S119 (Homo sapiens, UniProt P05187, N141S); assay: Ki of uncompetitive inhibitors (pNPP substrate); format: biochemical; conditions: hPLALP mutant S119; read-out: Ki for various inhibitors
T2 construct: made in house; host or cells: COS-7 (given only for the TNAP-Flag constructs)
T2 sequence (P05187 23-506 N141S limits assumed): as the sequence (P05187 23-506 E451G limits assumed) above, with N119S, G429E counted along it
Method: as §1

hPLALP D165 = target: T3, hPLALP D165 (Homo sapiens, UniProt P05187, N187D); assay: Ki of uncompetitive inhibitors (pNPP substrate); format: biochemical; conditions: hPLALP mutant D165; read-out: Ki for various inhibitors
T3 construct: made in house; host or cells: COS-7 (given only for the TNAP-Flag constructs)
T3 sequence (P05187 23-506 N187D limits assumed): as the sequence (P05187 23-506 E451G limits assumed) above, with N165D, G429E counted along it
Method: as §1

hPLALP (R428, H429) = target: T4, hPLALP (R428, H429) (Homo sapiens, UniProt P05187, D450R/E451H); assay: Ki of uncompetitive inhibitors (pNPP substrate); format: biochemical; conditions: hPLALP mutant (R428, H429); read-out: Ki for various inhibitors
T4 construct: made in house; host or cells: COS-7 (given only for the TNAP-Flag constructs)
T4 sequence (P05187 23-506 D450R/E451H limits assumed): as the sequence (P05187 23-506 E451G limits assumed) above, with D428R, G429H counted along it
Method: as §1

hPLALP (E107, G429) = target: T5, hPLALP (E107, G429) (Homo sapiens, UniProt P05187, E451G/F129E); assay: Ki of uncompetitive inhibitors (pNPP substrate); format: biochemical; conditions: hPLALP mutant (E107, G429); read-out: Ki for various inhibitors
T5 construct: made in house; host or cells: COS-7 (given only for the TNAP-Flag constructs)
T5 sequence (P05187 23-506 F129E/E451G limits assumed): as the sequence (P05187 23-506 E451G limits assumed) above, with F107E counted along it
Method: as §1

hPLALP H429 = target: T6, hPLALP H429 (Homo sapiens, UniProt P05187, E451H); assay: Ki of uncompetitive inhibitors (pNPP substrate); format: biochemical; conditions: hPLALP mutant H429; read-out: Ki for various inhibitors
T6 construct: made in house; host or cells: COS-7 (given only for the TNAP-Flag constructs)
T6 sequence (P05187 23-506 E451H limits assumed): as the sequence (P05187 23-506 E451G limits assumed) above, with G429H counted along it
Method: as §1

hPLALP = target: T7, hPLALP (Homo sapiens, UniProt P05187); assay: Ki of uncompetitive inhibitors (pNPP substrate); format: biochemical; conditions: read-out: Ki for various inhibitors
T7 construct: made in house
T7 sequence (P05187 23-506 limits assumed): as the sequence (P05187 23-506 E451G limits assumed) above, with G429E counted along it
Method: as §1

hPLALP R428 = target: T8, hPLALP R428 (Homo sapiens, UniProt P05187, D450R); assay: Ki of uncompetitive inhibitors (pNPP substrate); format: biochemical; conditions: hPLALP mutant R428; read-out: Ki for various inhibitors
T8 construct: made in house; host or cells: COS-7 (given only for the TNAP-Flag constructs)
T8 sequence (P05187 23-506 D450R limits assumed): as the sequence (P05187 23-506 E451G limits assumed) above, with D428R, G429E counted along it
Method: as §1

hPLALP G108 = target: T9, hPLALP G108 (Homo sapiens, UniProt P05187, Q130G); assay: Ki of uncompetitive inhibitors (pNPP substrate); format: biochemical; conditions: hPLALP mutant G108; read-out: Ki for various inhibitors
T9 construct: made in house; host or cells: COS-7 (given only for the TNAP-Flag constructs)
T9 sequence (P05187 23-506 Q130G limits assumed): as the sequence (P05187 23-506 E451G limits assumed) above, with Q108G, G429E counted along it
Method: as §1

hTNALP (D433, E434) = hTNALP (D433, E434) (Homo sapiens, UniProt P05186, H451E/R450D); assay: biochemical
Chain of hTNALP (D433, E434) (P05186 18-501 R450D/H451E): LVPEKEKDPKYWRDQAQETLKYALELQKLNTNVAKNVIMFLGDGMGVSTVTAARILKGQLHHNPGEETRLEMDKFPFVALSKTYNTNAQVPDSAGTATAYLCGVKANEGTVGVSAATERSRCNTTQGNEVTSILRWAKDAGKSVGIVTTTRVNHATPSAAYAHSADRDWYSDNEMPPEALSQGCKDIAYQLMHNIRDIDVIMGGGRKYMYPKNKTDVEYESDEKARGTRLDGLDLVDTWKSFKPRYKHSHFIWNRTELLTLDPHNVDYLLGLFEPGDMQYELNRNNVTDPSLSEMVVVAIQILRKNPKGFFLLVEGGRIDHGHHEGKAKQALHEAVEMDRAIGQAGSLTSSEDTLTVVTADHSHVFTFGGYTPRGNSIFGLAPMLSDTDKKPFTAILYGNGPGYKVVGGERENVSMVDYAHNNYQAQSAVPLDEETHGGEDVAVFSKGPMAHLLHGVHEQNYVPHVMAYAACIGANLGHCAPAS

| SMILES | Ki (hPLALP G429) [µM] | Ki (hPLALP S119) [µM] | Ki (hPLALP D165) [µM] | Ki (hPLALP (R428, H429)) [µM] | Ki (hPLALP (E107, G429)) [µM] | Ki (hPLALP H429) [µM] | Ki (hPLALP) [µM] | Ki (hPLALP R428) [µM] | Ki (hPLALP G108) [µM] | Ki (hTNALP (D433, E434)) [µM] |
| --- | --- | --- | --- | --- | --- | --- | --- | --- | --- | --- |
| N[C@@H](Cc1ccccc1)C(=O)O [L-Phe, L-phenylalanine] | 90 ± 10 | 670 ± 80 | 540 ± 40 | 350 ± 40 | 1000 ± 160 | 310 ± 30 | 750 ± 50 | 540 ± 50 | 2400 ± 300 | – |
| N=C(N)NCCCC[C@H](N)C(=O)O [L-hArg, L-homoarginine] | 12000 ± 2000 | 61000 ± 13000 | 59000 ± 25000 | 14000 ± 1000 | 1500 ± 200 | 10700 ± 1500 | 59000 ± 15000 | 36000 ± 4000 | 60000 ± 9000 | 13000 ± 1600 |
